tested on: P. falciparum 3D7 growth, pLDH absorbance; assay: P. falciparum 3D7 growth inhibition, dose response, strain 3D7 (AID 2305)

SMILES | IC50 [µM]
C[C@H](Cc1ccc(OCCCCCOc2ccc(C[C@@H](C)NC[C@H](O)c3cccc(Cl)c3)cc2)cc1)NC[C@H](O)c1cccc(Cl)c1 | 0.19
O=C(Cn1c(SCc2cccc(F)c2F)cc(=O)c2ccccc21)N(Cc1ccc(-c2ccc(C(F)(F)F)cc2)cc1)C1CCN(CCO)CC1 | 1.25
O=C(CCc1cccnc1)Nc1ccc(-c2cccc(-c3nc4ccc(F)cc4[nH]3)c2)cc1 | 0.92
COc1ccc(CNCCc2cccs2)cc1-c1ccc(S(=O)(=O)NCCN2CCCC2)s1 | 0.88
CN(C)c1ccc(C=Cc2nc(=O)c3ccccc3o2)cc1 | 0.04
Cc1cc(NCCC(=O)NCCOc2ccccc2)nc(Nc2ccccc2)n1 | 1.06
Cc1cccc(C(=O)Nc2ccnc(N3CCC(N(C)Cc4cccc(C#N)c4)CC3)c2)c1 | 1.1
c1ccc(Oc2ccc(Nc3ccnc(Nc4ccc5cn[nH]c5c4)n3)cc2)cc1 | 0.73
O=C(/C=C/c1ccc([N+](=O)[O-])cc1)N1CCC(NS(=O)(=O)c2ccc(Br)cc2)CC1 | 1.05
O=C(CCN(Cc1ccco1)c1nc(-c2ccc(F)cc2)nc2ccccc12)NC1CC1 | 1.58
CNC(=O)c1cc(F)c(F)cc1Nc1nc(Nc2cccc(CS(C)(=O)=O)c2)ncc1Cl | 1.02
CC(C)/C(=C(/F)CN1C(=O)C(NC(=O)c2cc3ccccc3[nH]2)C(=O)N(c2ccccc2)c2ccccc21)c1ccccc1 (stereo not given) | 0.7
O=C([C@@H]1CCCCN1c1ccc([N+](=O)[O-])c2ccccc12)N1CCN(c2ncccn2)CC1 | 0.2
O=C(NCCCCCN1CCC(c2c[nH]c3ccccc23)CC1)Nc1cccc(Cl)c1 | 1.02
COc1ccc(OC)c(C(O)CNC(C)C)c1 (stereo not given) | 0.06
Cc1sc2ccc(Cl)cc2c1S(=O)(=O)Nc1ccc2nccc(N3C[C@@H](C)N[C@@H](C)C3)c2c1 | 0.11
CN(C)CCOc1ccc(-c2cc(-c3ccc(Cl)c(O)c3)c(-c3ccncc3)o2)cc1 | 1.45
Cc1ccc(-c2nc3ccccc3o2)cc1NCc1cc(Cc2ccccc2)ccc1O | 1.03
Cc1cc(N[C@@H](CC(C)C)C(=O)NCCc2ccccc2)nc(Nc2ccccc2)n1 | 0.82
Fc1ccc2nc(-c3ccc(-c4ccc(CN5CCC(CCN6CCCCC6)CC5)cc4)s3)[nH]c2c1 | 0.14
Cn1ncc2ccc(Nc3nccc(-c4ccc5c(c4)c(N)nn5C)n3)cc21 | 0.65
COc1ccc2nccc(NN=Cc3cccc([N+](=O)[O-])c3)c2c1 | 0.4
NC(N)=Nc1nc(-c2cccc(NC(=O)NCC(c3ccccc3)c3ccccc3)c2)cs1 | 0.79
CN1CCCCC1CCc1cc(C(=O)Nc2ccc(-c3ccc(O)cc3)cc2)ccc1O (stereo not given) | 1.11
Cc1ccc(Cn2c(N3CCC(C(=O)NCc4cccs4)CC3)nc3ccccc32)cc1 | 0.75

SMILES | IC50 [µM]
CCN(CC)CCn1c(=N)n(CC(O)c2ccc(Cl)c(Cl)c2)c2ccccc21 (stereo not given) | 0.79
NC(=S)Cc1ccc2c(c1)OCO2 | 0.28
COc1cc(NC(=O)c2nn(CCCN3CCC4(CC3)C(=O)NCN4c3ccccc3)cc2-c2ccc(Cl)c(Cl)c2)cc(OC)c1OC | 0.75
COc1ccc2nc(-c3cccc(C)n3)nc(Nc3ccncc3)c2c1 | 0.67
COc1cc2nc(NCc3nc4ccccc4[nH]3)nc(N)c2cc1OC | 0.89
Oc1ccc(CN2CCC(NCc3cccc(C(F)(F)F)c3)CC2)cc1 | 0.68
Cc1sc2nc(CSc3ccccc3)nc(N3CCN(CC(=O)NC4CC4)CC3)c2c1C | 0.46
COCCn1c(Sc2ccc(C#N)c([N+](=O)[O-])c2)nnc1-c1ccc(N(C)C)cc1 | 1.03
CN1CCN(c2cccc(-c3nnc(-c4ccc(OCC(=O)NCc5ccc(C(F)(F)F)cc5)c([N+](=O)[O-])c4)o3)c2)CC1 | 0.66
Nc1nccc2ccc(Oc3ccncc3)cc12 | 0.48
Cn1nccc1C(=O)NCCNCc1ccc(-c2ccc(-c3nc4ccccc4[nH]3)s2)cc1 | 0.56
COc1ccc2nc(C)cc(NN=Cc3ccc([N+](=O)[O-])cc3)c2c1 | 0.69
CS(=O)(=O)CCNCc1ccc(-c2ccc3c(Nc4ccc(Cl)cc4F)ccnc3c2)o1 | 0.67
O=C1CCCN1CCCNCc1ccc(-c2ccc(-c3nc4ccc(F)cc4[nH]3)s2)cc1 | 0.9
CN1CCCN(Cc2ccc(-c3cccc(NC(=O)c4cccc(F)c4)c3)cc2)CC1 | 0.98
O=c1[nH]c2c(cc1CNC1CCCCC1)c(-c1cccc(F)c1)nn2-c1ccccc1 | 0.95
Cc1ccc2c(NC(=O)Nc3ccc(N(C)C)cc3)cc(C)nc2c1 | 0.82
COc1cc(Cc2cnc(N)nc2N)ccc1OCC(=O)Nc1ccc(C)cc1 | 0.48
Cc1cc(-c2nc3ccc(CN4CCN(C)CC4)cc3[nH]2)nn1Cc1cc(Cl)ccc1OCc1ccccc1 | 1.12
O=C(Cn1c(CCc2cccc(F)c2F)cc(=O)c2cccnc21)N(CCn1ccnc1)Cc1ccc(-c2ccc(C(F)(F)F)cc2)cc1 | 0.67
NCCCNc1ccnc2cc(Cl)ccc12 | 0.3
CCCCCCCNCc1c(O)ccc2c(CNCCCCCCC)c(O)ccc12 | 0.15
Clc1ccc(Nc2nc(NCc3ccccc3)nc(N/N=C/c3ccccn3)n2)cc1 | 0.78
O=C(Nc1ccc(OC2CCN(Cc3ccsc3)C2)c(Cl)c1)c1ccsc1 (stereo not given) | 1.02
Cc1cccc2[nH]c(-c3ccc(-c4ccc(NC(=O)Nc5ccsc5)cc4)s3)nc12 | 0.11
